The target of the assay is 5-hydroxytryptamine receptor 7 (Homo sapiens) (UniProt P34969). The assay can be described thus: Binding affinity to human 5HT7 receptor expressed in CHO cells. It counts as cell-based.

The structures appear in SMILES notation.

What is called pKb is −log10 of the Kb, conventionally taken in molar units.

5-hydroxytryptamine receptor 7 (Homo sapiens), sequence (P34969 whole entry): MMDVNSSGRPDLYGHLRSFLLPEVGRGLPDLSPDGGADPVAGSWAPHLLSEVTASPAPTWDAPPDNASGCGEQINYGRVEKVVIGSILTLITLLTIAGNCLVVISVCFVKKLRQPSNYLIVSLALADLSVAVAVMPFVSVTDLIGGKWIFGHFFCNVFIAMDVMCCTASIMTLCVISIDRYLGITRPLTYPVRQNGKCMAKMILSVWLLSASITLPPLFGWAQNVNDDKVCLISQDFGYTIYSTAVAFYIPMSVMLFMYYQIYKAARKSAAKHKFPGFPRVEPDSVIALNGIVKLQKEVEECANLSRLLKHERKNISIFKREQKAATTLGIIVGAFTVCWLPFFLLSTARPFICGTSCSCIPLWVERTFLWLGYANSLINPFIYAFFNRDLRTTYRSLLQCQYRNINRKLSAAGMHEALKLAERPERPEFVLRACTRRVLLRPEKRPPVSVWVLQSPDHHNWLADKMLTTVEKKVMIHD

In turn, `O=C(OC1CCN(CC[C@H]2CCCN2S(=O)(=O)c2ccccc2)CC1)c1ccc(F)cc1` showed a pKb of 7.1.
`COc1ccccc1N1CCN(CCCNS(=O)(=O)c2ccc(F)cc2)CC1`: the pKb is 7.26. The pKb values of the last two molecules are within 0.2 log units of each other.
